In patent US8937096B2, “Use of benzo-fused heterocyle sulfamide derivatives for the treatment of mania and bipolar disorder” (priority 2005, dated 2015):
Like-named read-outs stand apart in the source and are kept apart here.

Key:
CH3/HeJ mice = assay: Tail Suspension Test (Acute); type: in vivo, mouse; conditions: for Immobility Emax % of C / Mobility Emax % of C: 7-min session; for ED50: Mus musculus, po, 7 min
Protocol: In the tail suspension test (TST) for evaluating compounds for anti-depressant activity, mice are suspended by their tails to a metal or plastic rod using clip or scotch tape. The test is usually quite short, 5-7 min, and the amount of time the mice spend immobile is recorded either manually or with an automated device. Agents which have antidepressant activity, decrease the duration of immobility of mice in this test.
The basic apparatus for the tail suspension assay consisted of a yellow plastic chamber (91×45×10 cm) divided for four arenas 25, 20, 20 and 25 cm wide separated by yellow plastic walls 0.75 cm thick. Mice were suspended by their tails using a rubber clip (7 cm long) attached to the plastic rod that was placed on the top of a testing chamber half way through its deep dimension. Each experimental session was videotaped and analyzed for four animals in the real time by computer software (“Depression Scan” Clever Sys Inc.). The computer justification of immobility was calibrated with the use of animals dosed with lorazepam while justification of movement was calibrated with the high dose of desipramine treated animals. […] The settings were adjusted separately for dark (CH3/HeJ and C57BI/6J strains) and white mice (Balb/cJ and A/J strains). A yellow background was used for dark mice and a blue background was used to record movements of white mice.
The ability of a test compound to decrease the duration of immobility, or increase mobility was measured using the TST procedure described above.
Data were analyzed using GraphPad Prism software (GraphPad Software, Inc. San Diego, Calif.). For the comparison of the effect of different doses for various drugs on immobility in the TST one-way analyses of variance (ANOVA) were used followed by Dunnett's multiple comparison test. […] The ED50 and Emax values were compared using two-way ANOVA and Bonferroni post-hoc test.
Positive controls included duloxetine (DLX), venlafaxine (VLX) and desipramine (DMI) which were dissolved in 0.5% methylcellulose and lorazepam (LOR) which was suspended in 0.5% of methylcellulose in water by sonication. All drugs and vehicles were administered orally (p.o.) by gavage in a volume of 10 mL/kg.
The mice were ordered 5 weeks old and at the beginning of experiment their weight was 20±5 g. Animals were housed in groups of four in plastic cages at an ambient temperature of 21° C. to 23° C. with an automated 12/12 hours light/dark cycle and access to water and a commercial rodent food ad libitum.
Each experiment consisted of seven treatment groups with four animals per group. A total of 28 animals per experiment were used. Every two consecutive experiments (1 & 2, 3 & 4, 5 & 6 and 7 & 8) were exact replicas of each other. […] One treatment group of four animals in each experiment was a vehicle treated group. In addition to the vehicle treated group, the effects of DMI at 6 mg/kg, 12 mg/kg, 30 mg/kg, 60 mg/kg and 120 mg/kg and LOR at 5 mg/kg were tested in experiments 1 and 2. […] In experiments 5 and 6 the effects of DLX at 6 mg/kg, 12 mg/kg, 30 mg/kg, 60 mg/kg, 120 mg/kg and LOR at 5 mg/kg were tested.

[1] = test system: hippocampal kindled seizures; assay: Rat Hippocampal Kindling Test (Interruption of Kindled State); type: in vivo
Protocol: In the present rapid hippocampal kindling model adult male Sprague-Dawley rats (300-400 g) were surgically implanted with bipolar electrodes placed in the hippocampus. […] One week later, the rats received 2-3 supra-threshold stimulations delivered every 30 min before treatment with test compound, to ensure stability of the behavioral seizure stage and after-discharge duration. Fifteen minutes after the last stimulation, a single dose of vehicle or test compound was administered i.p. (intraperitoneally). After 15 min, each rat was then stimulated every 30 min for 3 to 4 h. After each stimulation, individual seizure scores and after-discharge durations were recorded. The group mean±SEM were calculated for each parameter. Eight rats per dose and a minimum of four doses were used to establish an ED50 value. Efficacy was measured as the ability of a compound to modify the seizure score (severity of spread) and after-discharge duration (ADD; excitability) of the generalized seizures.
Thus, according to the theories presented in current literature (Ghaemi, S. N., Boiman, E. E., and Goodwin, F. K., Soc. of Bio. Psychiatry, (1999), vol. 45, pp 137-144; Stoll, A. L., and Severus, W. E., Harvard Rev. Psychiatry, July/August (1996), Vol. 4, No. 2, pp 77-89) a decrease in seizure score and/or ADD may also be predictive of the ability of a test compound to treat the cycling associated with bipolar disorder.

[2] = test system: stressed and non-stressed animals; assay: Resident/Intruder Assay (Chronic Social Stress Assay); type: in vivo; parameters: Locomotor Mean ± SD / Rearing Mean ± SD / Sniffing Down Mean ± SD / Sniffing Up Mean ± SD: unit not given here
Source text: The behavioral resident/intruder assay is used to screen compounds for anti-depressant-like activity.

[3] = Median toxic dose (TD50) / toxic doses of Compound #8 and reference drugs; conditions: Sprague-Dawley, rat, in vivo, ip
[4] = non-stressed, 60 mg/kg p.o., week 1
[5] = non-stressed, 60 mg/kg p.o., week 5
[6] = non-stressed, 120 mg/kg p.o., week 1
[7] = non-stressed, 120 mg/kg p.o., week 5
[8] = stressed, 60 mg/kg p.o., week 1
[9] = stressed, 60 mg/kg p.o., week 5
[10] = stressed, 120 mg/kg p.o., week 1
[11] = stressed, 120 mg/kg p.o., week 5
[12] = non-stressed, 10 mg/kg p.o., week 1
[13] = non-stressed, 10 mg/kg p.o., week 5
[14] = stressed, 10 mg/kg p.o., week 1
[15] = stressed, 10 mg/kg p.o., week 5

NS(=O)(=O)NC[C@H]1COc2cc(Cl)ccc2O1 [Compound #8, (2S)-(−)-N-(6-Chloro-2,3-dihydro-benzo[1,4]dioxin-2-ylmethyl)-sulfamide]
doses at which effects were statistically significant vs vehicle (CH3/HeJ mice; p.o., CH3/HeJ mice): 12 mg/kg, 60 mg/kg, and 120 mg/kg | Immobility Emax % of C (CH3/HeJ mice; p.o., CH3/HeJ mice): 22.2±6.1 % of C | Mobility Emax % of C (CH3/HeJ mice; p.o., CH3/HeJ mice): 95.6 % of C | Immobility Emax % of C (CH3/HeJ mice; p.o., CH3/HeJ mice, listed as Cmpd #8): 22.2 % of C | immobility time and mobility time (CH3/HeJ mice; p.o., CH3/HeJ mice, 7-min testing session): decreased immobility time and increased mobility time | rats with significant reduction in global seizure activity (score <3) ([1]; after treatment i.p.): 6 out of 8 | rats with seizure scores significantly reduced from 5 to 1 ([1]; i.p., p=0.0003): 4 out of 8 | effect on the ADD (after-discharge duration) ([1]; i.p., p=0.07): no statistically significant effect | activity in the resident/intruder assay ([2]; 60 and 120 mg/kg p.o.): active in the resident/intruder assay | Forced Swim Test: Immobility during 5 min: Week 5 Mean ± SD ([2]; non-stressed, 60 mg/kg p.o.): 164.3 ± 25.3 | Sucrose Intake Mean ± SD Week 3 ([2]; non-stressed, 60 mg/kg p.o.): 90.9 ± 3.5 | Sucrose Intake Mean ± SD Week 4 ([2]; non-stressed, 60 mg/kg p.o.): 92.3 ± 1.4 | Sucrose Intake Mean ± SD Week 5 ([2]; non-stressed, 60 mg/kg p.o.): 88.9 ± 7.4 | Locomotor Mean ± SD [2, 4]: 8288.6 ± 2117.5 | Rearing Mean ± SD [2, 4]: 49.6 ± 8.7 | Sniffing Down Mean ± SD [2, 4]: 20.9 ± 3.3 | Sniffing Up Mean ± SD [2, 4]: 44.1 ± 9.4 | Locomotor Mean ± SD [2, 5]: 7922.9 ± 1476 | Rearing Mean ± SD [2, 5]: 37.4 ± 11.5 | Sniffing Down Mean ± SD [2, 5]: 23.5 ± 6.4 | Sniffing Up Mean ± SD [2, 5]: 33.4 ± 11.2 | Forced Swim Test: Immobility during 5 min: Week 5 Mean ± SD ([2]; non-stressed, 120 mg/kg p.o.): 136.7 ± 34.9 | Sucrose Intake Mean ± SD Week 3 ([2]; non-stressed, 120 mg/kg p.o.): 83.6 ± 22.1 | Sucrose Intake Mean ± SD Week 4 ([2]; non-stressed, 120 mg/kg p.o.): 91.3 ± 4.6 | Sucrose Intake Mean ± SD Week 5 ([2]; non-stressed, 120 mg/kg p.o.): 89.3 ± 5.1 | Locomotor Mean ± SD [2, 6]: 8056.6 ± 867.2 | Rearing Mean ± SD [2, 6]: 42 ± 10.6 | Sniffing Down Mean ± SD [2, 6]: 22.8 ± 3.7 | Sniffing Up Mean ± SD [2, 6]: 37.6 ± 8.4 | Locomotor Mean ± SD [2, 7]: 8648.3 ± 1060.9 | Rearing Mean ± SD [2, 7]: 36.5 ± 6.3 | Sniffing Down Mean ± SD [2, 7]: 25.5 ± 4.1 | Sniffing Up Mean ± SD [2, 7]: 33.5 ± 5.9 | Forced Swim Test: Immobility during 5 min: Week 5 Mean ± SD ([2]; stressed, 60 mg/kg p.o.): 175.1 ± 29.5 | Sucrose Intake Mean ± SD Week 3 ([2]; stressed, 60 mg/kg p.o.): 92.1 ± 3.2 | Sucrose Intake Mean ± SD Week 4 ([2]; stressed, 60 mg/kg p.o.): 89.5 ± 6.9 | Sucrose Intake Mean ± SD Week 5 ([2]; stressed, 60 mg/kg p.o.): 92.4 ± 4.5 | Locomotor Mean ± SD [2, 8]: 5858.5 ± 708.2 | Rearing Mean ± SD [2, 8]: 26.5 ± 6.1 | Sniffing Down Mean ± SD [2, 8]: 13 ± 3.3 | Sniffing Up Mean ± SD [2, 8]: 25 ± 7.3 | Locomotor Mean ± SD [2, 9]: 7080.9 ± 1238.7 | Rearing Mean ± SD [2, 9]: 32.8 ± 10.3 | Sniffing Down Mean ± SD [2, 9]: 24.8 ± 5.7 | Sniffing Up Mean ± SD [2, 9]: 30.6 ± 11.1 | Forced Swim Test: Immobility during 5 min: Week 5 Mean ± SD ([2]; stressed, 120 mg/kg p.o.): 128.3 ± 37.4 | Sucrose Intake Mean ± SD Week 3 ([2]; stressed, 120 mg/kg p.o.): 76.1 ± 20.8 | Sucrose Intake Mean ± SD Week 4 ([2]; stressed, 120 mg/kg p.o.): 75.5 ± 20.6 | Sucrose Intake Mean ± SD Week 5 ([2]; stressed, 120 mg/kg p.o.): 87.4 ± 7.9 | Locomotor Mean ± SD [2, 10]: 6168.3 ± 1132.1 | Rearing Mean ± SD [2, 10]: 29.3 ± 7 | Sniffing Down Mean ± SD [2, 10]: 13 ± 3.6 | Sniffing Up Mean ± SD [2, 10]: 27.5 ± 6.1 | Locomotor Mean ± SD [2, 11]: 6444 ± 1010.3 | Rearing Mean ± SD [2, 11]: 30.1 ± 6.4 | Sniffing Down Mean ± SD [2, 11]: 22.5 ± 4.1 | Sniffing Up Mean ± SD [2, 11]: 30.4 ± 7.5 | TD50 [3]: ~100 mg/kg

COc1ccc(C(CN(C)C)C2(O)CCCCC2)cc1 (centres unmarked) [Venlafaxine, venlafaxine, reference compound]
ED50 (CH3/HeJ mice; read-out: Immobility ED50): 25 mg/kg | ED50 (CH3/HeJ mice; read-out: Mobility ED50): 21.1 mg/kg | Immobility Emax % of C (CH3/HeJ mice; p.o., CH3/HeJ mice): 63.7 % of C | Mobility Emax % of C (CH3/HeJ mice; p.o., CH3/HeJ mice): 412.6 % of C | Forced Swim Test: Immobility during 5 min: Week 5 Mean ± SD ([2]; non-stressed, 10 mg/kg p.o.): 181.8 ± 27.6 | Sucrose Intake Mean ± SD Week 3 ([2]; non-stressed, 10 mg/kg p.o.): 88.4 ± 9.1 | Sucrose Intake Mean ± SD Week 4 ([2]; non-stressed, 10 mg/kg p.o.): 91.5 ± 5.6 | Sucrose Intake Mean ± SD Week 5 ([2]; non-stressed, 10 mg/kg p.o.): 87.9 ± 15.0 | Locomotor Mean ± SD [2, 12]: 9094.9 ± 1832.7 | Rearing Mean ± SD [2, 12]: 48.3 ± 11.2 | Sniffing Down Mean ± SD [2, 12]: 27.1 ± 5.2 | Sniffing Up Mean ± SD [2, 12]: 43.3 ± 8.9 | Locomotor Mean ± SD [2, 13]: 8078.6 ± 1665.2 | Rearing Mean ± SD [2, 13]: 40.1 ± 8.9 | Sniffing Down Mean ± SD [2, 13]: 27 ± 4.7 | Sniffing Up Mean ± SD [2, 13]: 38.6 ± 7.7 | Forced Swim Test: Immobility during 5 min: Week 5 Mean ± SD ([2]; stressed, 10 mg/kg p.o.): 190.4 ± 36.8 | Sucrose Intake Mean ± SD Week 3 ([2]; stressed, 10 mg/kg p.o.): 74.5 ± 16.7 | Sucrose Intake Mean ± SD Week 4 ([2]; stressed, 10 mg/kg p.o.): 76.1 ± 18.2 | Sucrose Intake Mean ± SD Week 5 ([2]; stressed, 10 mg/kg p.o.): 73.3 ± 17.6 | Locomotor Mean ± SD [2, 14]: 6233.6 ± 1087.2 | Rearing Mean ± SD [2, 14]: 30.8 ± 6.6 | Sniffing Down Mean ± SD [2, 14]: 14.9 ± 3.5 | Sniffing Up Mean ± SD [2, 14]: 28.6 ± 6.5 | Locomotor Mean ± SD [2, 15]: 6250.1 ± 789.2 | Rearing Mean ± SD [2, 15]: 35.1 ± 7.4 | Sniffing Down Mean ± SD [2, 15]: 18.3 ± 3.6 | Sniffing Up Mean ± SD [2, 15]: 33.1 ± 7.5
